Patent publication US8431540B2, “Modified lysine-mimetic compounds” (Zealand Pharma A/S, priority 2005, dated 2013)

Experiments:
[1] = tested on: Male CD-1 mice; experiment: Calcium-induced arrhythmia model (time to AV block after CaCl2 infusion); type: in vivo; settings: compound IV 3 min before CaCl2 infusion (100 mg/kg/min), saline control 62-78
Protocol: Peptides suitable for administration to cardiac cells can be identified in an in vivo model of calcium-induced arrhythmias according to the model of Lynch et al. (1981) J Cardiovasc. Pharmacol. 3: 49-60. Male CD-1 mice are anaesthetized with Ketamine (75 mg/kg) and medetomidine (1 mg/kg) IP. An i.v. cannula is inserted into the tail vein. A lead II ECG signal is recorded continuously by positioning stainless steel ECG electrodes on the right forelimb and […]. The ground electrode is placed on the right hind limb. The signal is amplified and filtered using Gould physiograph components and po-ne-mah data acquisition software. After a 90 sec equilibration period test compound is injected into the tail vein (over 30 seconds). Mice pre-treated with vehicle are tested as control animals. The injection volume is 100 μl/30 g mice in all experiments. Infusion of CaCl2 (30 mg/mL, 0.1 mL/min/30 g mice, 100 mg/kg/min) is started 3 min after IV administration of drug or vehicle (0.9% saline). The time lag to onset of cardiac conduction block is determined as the time from the start of CaCl2 infusion until the first arrhythmic event occurred. The first conduction block is defined as the first RR-interval, larger than or equal to 3 times one RR-interval from the pre-treatment period. The first arrhythmic event occurring is either a second degree AV-block (intermittent failure of the AV conduction characterized by a P-wave without the concomitant QRS complex) or a second degree SA block (prolonged RR-interval and a QRS-complex without a preceding P-wave). Responses are expressed relative to the time until 2nd degree AV-block occurred in vehicle treated mice.
The anti-arrhythmic effect of compounds according to the present teachings was tested in a model of calcium-induced arrhythmias according to the model of Lynch et al., J. Cardiovasc. Pharmacol. (1981), 3: 49-60. Male CD-1 mice were anaesthetized with Ketamine (75 mg/kg) and medetomidine (1 mg/kg) IP. An i.v. cannula was inserted into the tail vein. A lead II ECG signal was recorded continuously by positioning stainless steel ECG electrodes on the right forelimb and […]. The ground electrode was placed on the right hind limb. The signal was amplified and filtered using Gould physiograph components and po-ne-mah data acquisition software. After a 90 sec equilibration period test compound was injected into the tail vein (over 30 seconds). Mice pre-treated with vehicle (0.9% saline) were tested as control animals. The injection volume was 100 μl/30 g mice in all experiments. Infusion of CaCl2 (30 mg/mL, 0.1 mL/min/30 g mice, 100 mg/kg/min) was started 3 min after IV administration of drug or vehicle. The time lag to onset of cardiac conduction block was determined as the time from the start of CaCl2 infusion until the first arrhythmic event occurred. The first conduction block was defined as the first RR-interval, larger/or equal to, 3 times one RR-interval from the pre-treatment period. The first arrhythmic event occurring was either a second degree AV-block (intermittent failure of the AV conduction characterized by a P-wave without the concomitant QRS complex) or a second degree SA block (prolonged RR-interval and a QRS-complex without a preceding P-wave).
Mice pre-treated with vehicle (0.9% saline) were tested on all days as a measure for control level in untreated animal. Injection volume was 100 μL in all experiments. The time lag to onset of arrhythmias was determined as the time from the start of CaCl2 infusion until the first event of conduction block defined as intermittent failure of the SA or AV conduction characterized by delayed P-wave activation (SA block) or by a P-wave without the concomitant QRS complex (AV block). The time lag to onset of AV block is given below in Table 2.

[2] = Plasma stability assay; settings: male rat plasma (1:1 plasma:pH 7.4 buffer), 1 μM, 37° C., 3 hours
Protocol: To predict its plasma stability, compounds of the present teachings were incubated in male rat plasma (1:1 plasma:pH 7.4 buffer) at 1 μM concentration at 37° C. After 3 hours, the reaction was quenched with cold acetonitrile. The solution was centrifuged and the supernatant was analyzed with LC-MS using the following HPLC conditions: Thermo Hypersil-Keystone Aquasil C18 column (50 mm×2.1 mm, 5 μM) at ambient temperature; Solvent A: 0.1% formic acid in water; Solvent B: 0.1% formic acid in acetonitrile; solvent gradient: 100% A to 50% A over 2.5 min, to 10% A over 1.5 min, and returning to 100% A and re-equilibrating for 1.5 min; flowrate: 0.8 mL/min. The percent of the compound remaining was calculated by dividing the 3-hour incubation sample LC-MS signal area counts by the time=0 area counts.

[3] = Metabolic stability assay (liver microsomes); settings: male, rat
Protocol: To predict the stability of the compound under first pass (Phase I) metabolism, compounds of the present teachings were incubated with male rat liver microsomes at 1 μM concentration and 0.5 mg/mL protein concentration at 37° C. After 15 min, the reaction was quenched with cold acetonitrile. The solution was centrifuged and the supernatant was analyzed with LC-MS using the HPLC conditions described in section 3 above.

Structure (SMILES) | Time to AV block [1] [s] | % Remaining [2] [%] | half-life at 1 μM [3] [min] | half-life in male rat liver microsomes
NC(CCC(=O)O)C(=O)N1C[C@H](NC(=O)c2ccccc2)C[C@H]1C(=O)O (stereo partly drawn) [Compound 6, (2S,4R)1-(2-Amino-4-carboxy-butyryl)-4-benzoylamino-pyrrolidine-2-carboxylic acid] | 117.9 | – | – | –
NCC(=O)Nc1cc(NC(=O)c2ccccc2)cc(C(=O)O)c1 [Compound 26, 3-(2-Amino-acetylamino)-5-benzoylamino-benzoic acid] | 122.8 | – | – | –
O=C(N[C@@H]1C[C@@H](C(=O)O)N(C(=O)CO)C1)c1ccccc1 [Compound 52, (2S,4R) 4-Benzoylamino-1-(2-hydroxy-acetyl)-pyrrolidine-2-carboxylic acid] | 135.6 | – | – | –
O=C(CO)Nc1cc(NC(=O)c2ccccc2)cc(C(=O)O)c1 [Compound 54, 3-Benzoylamino-5-(2-hydroxy-acetylamino)-benzoic acid] | 121.7 | – | – | –
NC(=O)C1N(C(=O)CO)CCN1C(=O)c1ccccc1 (stereo not drawn) [Compound 56, 1-Benzoyl-3-(2-hydroxy-acetyl)-imidazolidine-2-carboxylic acid amide] | 128.1 | – | – | –
NCC(=O)N1C[C@H](NC(=O)c2ccccc2)C[C@H]1C(N)=O [Compound 64, (2S,4R) 1-(2-aminoacetyl)-4-benzamidopyrrolidine-2-carboxamide] | 111.7 | 27 | > 30 | –
CNC(=O)[C@@H]1C[C@@H](NC(=O)c2ccccc2)CN1C(=O)CN [Compound 65, (2S,4R) 1-(2-aminoacetyl)-4-benzamido-N-methylpyrrolidine-2-carboxamide] | 115.2 | 87 | > 30 | –
CCNC(=O)[C@@H]1C[C@@H](NC(=O)c2ccccc2)CN1C(=O)CN [Compound 66, (2S,4R) 1-(2-aminoacetyl)-4-benzamido-N-ethylpyrrolidine-2-carboxamide] | 122.7 | 100 | > 30 | –
CC(C)NC(=O)[C@@H]1C[C@@H](NC(=O)c2ccccc2)CN1C(=O)CN [Compound 67, (2S,4R) 1-(2-aminoacetyl)-4-benzamido-N-isopropylpyrrolidine-2-carboxamide] | 134.4 | 100 | > 30 | –
NCC(=O)N1C[C@H](NC(=O)c2ccccc2)C[C@H]1C(=O)NC1CC1 [Compound 68, (2S,4R) 1-(2-aminoacetyl)-4-benzamido-N-cyclopropylpyrrolidine-2-carboxamide] | 143.8 | 96 | > 30 | –
CC(C)(C)OC(=O)NCC(=O)N1C[C@H](NC(=O)c2ccccc2)C[C@H]1C(N)=O [Compound 69, (2S,4R) 4-benzamido-1-(2-(tert-butoxycarbonylamino)acetyl) pyrrolidine-2-carboxamide] | – | – | – | greater than 30 minutes
CCC(CC)NC(=O)[C@@H]1C[C@@H](NC(=O)c2ccccc2)CN1C(=O)CN [Compound 70, (2S,4R) 1-(2-aminoacetyl)-4-benzamido-N-(pentan-3-yl)pyrrolidine-2-carboxamide] | – | 93 | > 30 | –
NCC(=O)N1C[C@H](NC(=O)c2ccccc2)C[C@H]1C(=O)NC1CCCC1 [Compound 71, (2S,4R) 1-(2-aminoacetyl)-4-benzamido-N-cyclopentylpyrrolidine-2-carboxamide] | – | 90 | > 30 | –
CC(C)CNC(=O)[C@@H]1C[C@@H](NC(=O)c2ccccc2)CN1C(=O)CN [Compound 72, (2S,4R) 1-(2-aminoacetyl)-4-benzamido-N-isobutylpyrrolidine-2-carboxamide] | – | 88 | > 30 | –
NCC(=O)N1C[C@H](NC(=O)c2ccccc2)C[C@H]1C(=O)NC1CCC1 [Compound 73, (2S,4R) 1-(2-aminoacetyl)-4-benzamido-N-cyclobutylpyrrolidine-2-carboxamide] | – | 95 | > 30 | –
CC(=O)NCC(=O)N1C[C@H](NC(=O)c2ccccc2)C[C@H]1C(=O)O [Compound 80, (2S,4R) 1-(2-acetamidoacetyl)-4-benzamidopyrrolidine-2-carboxylic acid] | 111.5 | 100 | > 30 | –
CNCC(=O)N1C[C@H](NC(=O)c2ccccc2)C[C@H]1C(=O)O [Compound 81, (2S,4R) 4-benzamido-1-(2-(methylamino)acetyl)-pyrrolidine-2-carboxylic acid] | 123.2 | 100 | > 30 | –
O=C(N[C@@H]1C[C@@H](C(=O)O)N(C(=O)CNC(=O)C(F)(F)F)C1)c1ccccc1 [Compound 82, (2S,4R) 4-benzamido-1-(2-(2,2,2-trifluoroacetamido)acetyl)pyrrolidine-2-carboxylic acid] | 113.8 | 34 | > 30 | –
CC(C)(C)OC(=O)NCC(=O)N1C[C@H](NC(=O)c2ccccc2)C[C@H]1C(=O)O [Compound 83, (2S,4R) 4-benzamido-1-(2-(tert-butoxycarbonylamino)acetyl) pyrrolidine-2-carboxylic acid] | 110.9 | 100 | > 30 | –
CN(C)CC(=O)N1C[C@H](NC(=O)c2ccccc2)C[C@H]1C(=O)O [Compound 84, (2S,4R) 4-benzamido-1-(2-(dimethylamino)acetyl)pyrrolidine-2-carboxylic acid] | 108.8 | 100 | > 30 | –
O=CNCC(=O)N1C[C@H](NC(=O)c2ccccc2)C[C@H]1C(=O)O [Compound 85, (2S,4R) 4-benzamido-1-(2-formamidoacetyl)pyrrolidine-2-carboxylic acid] | – | 107 | – | –
